Data published in the supplement of paper PMC10307832.

These cell lines were tested with CC1=CC(=C(N1C2=CC=C(C=C2)Cl)C)C(=O)CN3CCCCC3 [IU1-47] + Nc1nc2[nH]cc(CCc3ccc(C(=O)N[C@@H](CCC(=O)O)C(=O)O)cc3)c2c(=O)[nH]1 [Pemetrexed] (partner 0.2 µM) (assay: relative viability (nuclei count vs DMSO), 5 days (fraction); higher = more cells survive). Details: first compound 0.08 µM.
In short: (§1)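 Each reported value is a median over duplicate plates. It expresses relative viability: treated-well nuclei count divided by vehicle-well nuclei count. Lung cancer cell lines in 1536-well plates were dosed by pin tool a day after seeding, alone with one drug or with a fixed anchor-drug dose plus five library-drug doses (not always all listed) in √10 steps, and nuclei were counted after 5 days.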
For LC-2-ad, the relative viability was 0.284. Cell Line NCI-H1975 has a relative viability of 0.278. RERF-LC-KJ gave a relative viability of 0.503. NCI-H650 was tested, and the relative viability was 1.01. Work on PC-3 [JPC-3] yielded a relative viability of 1.13.

Same assay, conditions: first compound 0.253 µM
Work on LC-2-ad yielded a relative viability of 0.283. NCI-H1975 was tested, and the relative viability was 0.289. RERF-LC-KJ was tested, and the relative viability was 0.454. Work on NCI-H650 yielded a relative viability of 1.1. Work on PC-3 [JPC-3] yielded a relative viability of 1.12.

Same assay, conditions: first compound 0.8 µM
Cell Line LC-2-ad has a relative viability of 0.268. NCI-H1975 was tested, and the relative viability was 0.297. For RERF-LC-KJ, the relative viability was 0.523. Work on NCI-H650 yielded a relative viability of 0.965. In the case of PC-3 [JPC-3], the relative viability is reported as 1.04.

Same assay, conditions: first compound 2.53 µM
NCI-H1975 gave a relative viability of 0.299. Cell Line RERF-LC-KJ has a relative viability of 0.389. Work on NCI-H650 yielded a relative viability of 0.878. PC-3 [JPC-3] gave a relative viability of 0.774.

Same assay, conditions: first compound 8 µM
With LC-2-ad the relative viability was 0.262. With NCI-H1975 the relative viability was 0.255. RERF-LC-KJ gave a relative viability of 0.479. Work on NCI-H650 yielded a relative viability of 1. For PC-3 [JPC-3], the relative viability was 1.07.

What follows are cell lines tested with Cc1nc(C(=O)NCC(=O)O)c(O)c2ccc(Oc3ccccc3)cc12 [FG-4592] + CC(C)C[C@H](NC(=O)[C@H](Cc1ccccc1)NC(=O)c1cnccn1)B(O)O [Bortezomib] (partner 0.002 µM) in the same assay as above. Details: first compound 0.08 µM.
In short: as §1
In the case of LC-2-ad, the relative viability is reported as 0.98. In the case of NCI-H1975, the relative viability is reported as 0.369. For RERF-LC-KJ, the relative viability was 0.99. For NCI-H650, the relative viability was 0.903. PC-3 [JPC-3] was tested, and the relative viability was 0.824.

Same assay, conditions: first compound 0.253 µM
Cell Line LC-2-ad has a relative viability of 1.02. For NCI-H1975, the relative viability was 0.318. RERF-LC-KJ showed a relative viability of 0.975. NCI-H650 gave a relative viability of 0.771. With PC-3 [JPC-3] the relative viability was 0.745.

Same assay, conditions: first compound 0.8 µM
For LC-2-ad, the relative viability was 0.973. With NCI-H1975 the relative viability was 0.34. With RERF-LC-KJ the relative viability was 0.967. For NCI-H650, the relative viability was 0.525. With PC-3 [JPC-3] the relative viability was 0.872.

Same assay, conditions: first compound 2.53 µM
LC-2-ad gave a relative viability of 1.05. For NCI-H1975, the relative viability was 0.4. With RERF-LC-KJ the relative viability was 1.11. NCI-H650 gave a relative viability of 0.66. Work on PC-3 [JPC-3] yielded a relative viability of 0.884.

Same assay, conditions: first compound 8 µM
LC-2-ad gave a relative viability of 0.878. NCI-H1975 showed a relative viability of 0.307. With RERF-LC-KJ the relative viability was 1.06. Cell Line NCI-H650 has a relative viability of 0.807. In the case of PC-3 [JPC-3], the relative viability is reported as 0.832.

These cell lines were tested with Cc1nc(C(=O)NCC(=O)O)c(O)c2ccc(Oc3ccccc3)cc12 [FG-4592] + Cc1nc(Nc2ncc(C(=O)Nc3c(C)cccc3Cl)s2)cc(N2CCN(CCO)CC2)n1 [Dasatinib] (partner 0.075 µM) in the same assay as above. Details: first compound 0.08 µM.
In short: as §1
For LC-2-ad, the relative viability was 0.513. Cell Line NCI-H1975 has a relative viability of 0.416. In the case of RERF-LC-KJ, the relative viability is reported as 0.91. With NCI-H650 the relative viability was 0.464. Cell Line PC-3 [JPC-3] has a relative viability of 1.04.

Same assay, conditions: first compound 0.253 µM
With LC-2-ad the relative viability was 0.559. For NCI-H1975, the relative viability was 0.313. With RERF-LC-KJ the relative viability was 0.701. Cell Line NCI-H650 has a relative viability of 0.491. In the case of PC-3 [JPC-3], the relative viability is reported as 0.92.

Same assay, conditions: first compound 0.8 µM
NCI-H1975 showed a relative viability of 0.351. Work on RERF-LC-KJ yielded a relative viability of 0.739. In the case of NCI-H650, the relative viability is reported as 0.393. With PC-3 [JPC-3] the relative viability was 0.896.

Same assay, conditions: first compound 2.53 µM
LC-2-ad was tested, and the relative viability was 0.536. For NCI-H1975, the relative viability was 0.277. With RERF-LC-KJ the relative viability was 0.836. With NCI-H650 the relative viability was 0.407. With PC-3 [JPC-3] the relative viability was 1.05.

Same assay, conditions: first compound 8 µM
Cell Line LC-2-ad has a relative viability of 0.66. NCI-H1975 was tested, and the relative viability was 0.366. For RERF-LC-KJ, the relative viability was 0.678. Work on NCI-H650 yielded a relative viability of 0.392. PC-3 [JPC-3] gave a relative viability of 0.954.

These cell lines were tested with Cc1nc(C(=O)NCC(=O)O)c(O)c2ccc(Oc3ccccc3)cc12 [FG-4592] + O=C(CCCCCCC(=O)Nc1ccccc1)NO [Vorinostat] (partner 1 µM) in the same assay as above. Details: first compound 0.08 µM.
In short: as §1
Cell Line LC-2-ad has a relative viability of 0.715. With NCI-H1975 the relative viability was 0.723. Work on RERF-LC-KJ yielded a relative viability of 0.672. In the case of NCI-H650, the relative viability is reported as 0.352. PC-3 [JPC-3] gave a relative viability of 0.705.

Same assay, conditions: first compound 0.253 µM
Work on LC-2-ad yielded a relative viability of 0.645. Work on NCI-H1975 yielded a relative viability of 0.644. In the case of RERF-LC-KJ, the relative viability is reported as 0.629. Cell Line NCI-H650 has a relative viability of 0.574. PC-3 [JPC-3] was tested, and the relative viability was 0.797.

Same assay, conditions: first compound 0.8 µM
LC-2-ad showed a relative viability of 0.782. Cell Line NCI-H1975 has a relative viability of 0.748. Cell Line RERF-LC-KJ has a relative viability of 0.705. In the case of NCI-H650, the relative viability is reported as 0.384.

Same assay, conditions: first compound 2.53 µM
In the case of LC-2-ad, the relative viability is reported as 0.637. Cell Line NCI-H1975 has a relative viability of 0.767. RERF-LC-KJ showed a relative viability of 0.486. NCI-H650 was tested, and the relative viability was 0.339. In the case of PC-3 [JPC-3], the relative viability is reported as 0.853.

Same assay, conditions: first compound 8 µM
LC-2-ad gave a relative viability of 0.683. NCI-H1975 showed a relative viability of 0.653. In the case of RERF-LC-KJ, the relative viability is reported as 0.701. NCI-H650 was tested, and the relative viability was 0.365. PC-3 [JPC-3] showed a relative viability of 0.823.
